Assay results reported in paper PMC8123651, “Flavones from Combretum quadrangulare Growing in Vietnam and Their Alpha-Glucosidase Inhibitory Activity” (Molecules, 2021).

Assays:
alpha-glucosidase [1] = molecular target: T1, alpha-glucosidase (Saccharomyces cerevisiae, UniProt P53341); experiment: Alpha-glucosidase inhibition assay (pNPG substrate); assay type: biochemical; conditions: means ± standard errors of three independent experiments; read-out: Alpha-glucosidase inhibitory IC50
Experimental: The alpha-glucosidase (0.2 U/mL) and substrate (5.0 mM p-nitrophenyl-α-D-glucopyranoside) were dissolveed in 100 mM of pH 6.9 sodium phosphate buffer. The inhibitor (50 µL) was preincubated with alpha-glucosidase at 37 °C for 20 min, and then the substrate (40 µL) was added to the reaction mixture. The enzymatic reaction was carried out at 37 °C for 20 min and stopped by adding 0.2 M of Na2CO3 (130 μL). Enzymatic activity was quantified by measuring absorbance at 405 nm. All samples were analyzed in triplicate at five different concentrations around the IC50 values, and the mean values were retained. The inhibition percentage (%) was calculated by the following equation: Inhibition (%)=[1−(Asample/Acontrol)]×100. .

[2] = test system: methicillin-resistant Staphylococcus aureus (MRSA); experiment: Antibacterial activity, agar well diffusion method; assay type: cell-based; conditions: 50 μg of each compound per well, 8-mm wells, read-out: Diameter of inhibition zone
Experimental: Methicillin-resistant Staphylococcus aureus (MRSA), extended spectrum beta-lactamase-producing Escherichia coli (ESBL-producing E. coli) and the agar well diffusion method were used to evaluate the antibacterial activity of the isolated compounds [29]. The strains were cultured in nutrient broth at 37 °C for 18 h and diluted with steriled 0.9% NaCl to obtain the 1.5 × 10^8 CFU/mL bacterial solution. Then, 100 μL of the bacterial solution was spread on Mueller–Hinton agar (MHA) plate on which 8-mm wells were created aseptically with tips. The isolated compounds were dissolved in dimethyl sulfoxide at the concentration of 1 mg/mL and 50 μL of each compound solution was applied in each well. The plates were incubated at 37 °C for 16–18 h and the diameters of the inhibtion zones were measured. Dimethyl sulfoxide and apramycin were used as controls in this experiment.

alpha-glucosidase [3] = molecular target: T1, alpha-glucosidase; experiment: Inhibitory type assay on alpha-glucosidase (Lineweaver–Burk plots); assay type: biochemical; conditions: Vmax decreased while Km remained constant
Experimental: In order to examine the inhibition mechanism of compound 11, their activity was measured at the different concentration of pNPG.
Enzyme inhibition due to various concentrations of the 8 and 11 compounds were evaluated by monitoring the effects of different concentrations of the substrate. For Lineweaver–Burk double reciprocal plots 1/enzyme velocity (1/V) vs. 1/substrate concentration (1/[S]), the inhibition type was determined using various concentrations of pNPG (1 mM, 2 mM, and 4 mM) as a substrate in the presence of different concentrations of the test compounds (0; 4.96; 9.92 and 19.84 µM for 8 and 0; […]; 43.03 and 86.06 µM for 11). The experiments were carried out in 3 replicates. The mixtures were incubated at 37 °C and the optical density was measured at 405 nm every 1 min for 30 min with the Clariostar Labtech microplate reader (Ortenberg, Germany). Optimal concentrations of the tested compound were chosen based on the IC50 value. The inhibition constants were obtained graphically from secondary plots (Microsoft Excel 2010, Washington, WA, USA).

T1 sequence (P53341 whole entry): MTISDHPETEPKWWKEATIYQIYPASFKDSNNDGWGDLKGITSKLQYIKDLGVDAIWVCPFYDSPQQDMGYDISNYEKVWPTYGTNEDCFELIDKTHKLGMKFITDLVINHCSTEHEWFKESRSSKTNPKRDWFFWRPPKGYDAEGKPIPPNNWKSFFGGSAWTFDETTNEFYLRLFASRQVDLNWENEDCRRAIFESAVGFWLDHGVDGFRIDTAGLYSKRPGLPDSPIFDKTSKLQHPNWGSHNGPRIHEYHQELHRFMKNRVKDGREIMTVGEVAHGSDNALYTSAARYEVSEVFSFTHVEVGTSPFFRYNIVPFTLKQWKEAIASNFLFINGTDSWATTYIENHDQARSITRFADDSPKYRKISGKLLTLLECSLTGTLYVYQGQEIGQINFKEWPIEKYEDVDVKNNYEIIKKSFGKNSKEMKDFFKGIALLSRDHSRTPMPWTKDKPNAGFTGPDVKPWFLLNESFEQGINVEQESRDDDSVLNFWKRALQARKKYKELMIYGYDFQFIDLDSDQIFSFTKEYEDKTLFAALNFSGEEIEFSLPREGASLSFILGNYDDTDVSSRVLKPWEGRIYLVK

For vitexin [Compound 16], the IC50 (alpha-glucosidase [1]) was over 300 µM.
In the case of COc1cc(O)c2c(=O)c(O)c(-c3ccc(OC)c(O)c3)oc2c1 [Compound 5, ombuin], the zone of inhibition at 50 µg/disc [2] is reported as 15 mm.
COc1c(O)cc(-c2oc3c(Br)c(OC)c(Br)c(O)c3c(=O)c2OC)cc1Br [Compound 8, 6,8,5′-Tribromoayanin] was tested, and the Inhibition type (alpha-glucosidase [3]) was “noncompetitive”.
For COc1c(Br)c(O)c2c(=O)c(OC)c(-c3cc(Br)c(O)c(Br)c3)oc2c1Br [Compound 11, 6,8,3′,5′-Tetrabromokamatakenin], the Inhibition type (alpha-glucosidase [3]) was “noncompetitive”.
isoorientin [Compound 15] gave an IC50 (alpha-glucosidase [1]) of over 300 µM.
For CN[C@@H]1[C@@H](O[C@H]2O[C@H](CO)[C@@H](N)[C@H](O)[C@H]2O)OC2C[C@@H](N)[C@@H](O[C@H]3[C@H](O)[C@@H](O)[C@H](N)C[C@@H]3N)OC2[C@@H]1O (stereo partly drawn) [apramycin, reference compound], the zone of inhibition at 50 µg/disc [2] was 24 mm.
